According to publication PMC3596305, “Escherichia coli NemA Is an Efficient Chromate Reductase That Can Be Biologically Immobilized to Provide a Cell Free System for Remediation of Hexavalent Chromium” (PLoS ONE, 2013):

Test system: T1, KefF_Pa
T1 construct: gene kefF
Assay: diphenylcarbazide Cr(VI) assay, Lineweaver-Burk
Format: biochemical
Conditions: 1 mM NADH, 50 mM Tris-Cl pH 7.0, 22°C; read-out: KM (μM) ^b
Source text: diphenylcarbazide Cr(VI) assay, Lineweaver-Burk on KefF_Pa

In the case of `[O]=[Cr](=[O])([OH])[OH]` [Cr(VI)], the Km is reported as 140 µM.
